The text below walks through data of patent publication US4681893A, “Trans-6-[2-(3- or 4-carboxamido-substituted pyrrol-1-yl)alkyl]-4-hydroxypyran-2-one inhibitors of cholesterol synthesis” (Warner-Lambert Company, priority 1986, dated 1987).

Experiment [1] deals with biosynthesis of cholesterol (sterol synthesis) in rat liver homogenate. Kind of experiment: CSI screen: inhibition of sterol synthesis (incorporation of cholesterol-14C-acetate into nonsaponifiable lipid) by rat liver homogenate. It is filed as biochemical. The conditions noted are these: one-hour period, cholestyramine-fed rats, read-out: IC50 (Micromoles/liter) CSI. The method, then:
The ability of compounds of the present invention to inhibit the biosynthesis of cholesterol was measured by two methods. A first method (designated CSI screen) utilized the procedure described by R. E. Dugan et al., Archiv. Biochem. Biophys., (1972), 152, 21-27. In this method, the level of HMG-CoA enzyme activity in standard laboratory rats is increased by feeding the rats a chow diet containing 5% cholestyramine for four days, after which the rats are sacrificed.
The rat livers are homogenized, and the incorporation of cholesterol-^14 C-acetate into nonsaponifiable lipid by the rat liver homogenate is measured. The micromolar concentration of compound required for 50% inhibition of sterol synthesis over a one-hour period is measured, and expressed as an IC50 value.

Experiment [2] has as its target T1, HMG-CoA reductase (Rattus norvegicus, UniProt P51639).
T1 sequence (P51639 1-887): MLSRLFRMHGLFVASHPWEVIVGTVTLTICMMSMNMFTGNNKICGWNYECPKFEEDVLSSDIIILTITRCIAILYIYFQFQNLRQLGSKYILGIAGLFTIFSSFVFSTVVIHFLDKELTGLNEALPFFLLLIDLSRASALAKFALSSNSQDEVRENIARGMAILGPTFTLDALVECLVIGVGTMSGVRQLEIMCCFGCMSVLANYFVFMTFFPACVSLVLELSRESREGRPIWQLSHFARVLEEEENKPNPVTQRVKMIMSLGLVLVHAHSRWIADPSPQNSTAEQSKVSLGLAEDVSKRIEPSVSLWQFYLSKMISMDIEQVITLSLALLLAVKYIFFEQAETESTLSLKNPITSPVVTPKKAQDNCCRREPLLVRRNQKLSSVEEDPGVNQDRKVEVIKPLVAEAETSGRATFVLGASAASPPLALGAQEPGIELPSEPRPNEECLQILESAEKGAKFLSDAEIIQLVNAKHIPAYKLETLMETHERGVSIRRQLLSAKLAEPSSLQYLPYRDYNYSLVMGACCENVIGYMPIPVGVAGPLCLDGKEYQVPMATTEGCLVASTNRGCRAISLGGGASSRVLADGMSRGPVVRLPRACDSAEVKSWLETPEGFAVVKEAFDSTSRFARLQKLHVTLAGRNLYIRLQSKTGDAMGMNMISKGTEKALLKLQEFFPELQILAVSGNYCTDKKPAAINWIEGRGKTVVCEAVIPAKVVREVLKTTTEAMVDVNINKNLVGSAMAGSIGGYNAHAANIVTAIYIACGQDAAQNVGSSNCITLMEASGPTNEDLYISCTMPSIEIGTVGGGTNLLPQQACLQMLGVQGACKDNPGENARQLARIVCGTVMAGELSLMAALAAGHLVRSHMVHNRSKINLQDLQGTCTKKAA
Kind of experiment: COR screen: conversion of 14C-HMG-CoA to 14C-mevalonate by a purified HMG-CoA reductase preparation. In kind it is biochemical. The conditions noted are these: purified enzyme preparation of HMG-CoA reductase, read-out: IC50 (Micromoles/liter) COR. As to the method:
A second method (designated COR screen) employed the procedure detailed by T. Kita, et al., J. Clin. Invest., (1980), 66: 1094-1100. In this method, the amount of ^14 C-HMG-CoA converted to ^14 C-mevalonate in the presence of a purified enzyme preparation of HMG-CoA reductase was measured. The micromolar concentration of compound required for 50% inhibition of cholesterol synthesis was measured and recorded as an IC50 value.

In the case of `O=C1C[C@@H](O)C[C@H](CCn2c(-c3ccc(F)cc3)c(-c3ccccc3)c(C(=O)Nc3ccccc3)c2C(F)(F)F)O1` (relative stereo) [Compound 3, trans-5-(4-fluorophenyl)-N,4-diphenyl-1-[2-(tetrahydro-4-hydroxy-6-oxo-2H-pyran-2-yl)ethyl]-2-(trifluoromethyl)-pyrrole-3-carboxamide], the IC50 in experiment [1] worked out at 18 nM; in experiment [2], 20 nM.
For `CC[C@H](C)C(=O)O[C@H]1CCC=C2C=C[C@H](C)[C@H](CC[C@@H]3C[C@@H](O)CC(=O)O3)[C@H]21` [Compactin, reference compound], the IC50 in experiment [1] was found to be 26 nM.
Take `O=C1C[C@@H](O)C[C@H](CCn2c(-c3ccc(F)cc3)c(C(=O)Nc3ccccc3)c(-c3ccccc3)c2C(F)(F)F)O1` (relative stereo) [Compound 2, trans-2-(4-fluorophenyl)-N,4-diphenyl-1-[2-(tetrahydro-4-hydroxy-6-oxo-2H-pyran-2-yl)ethyl]-5-(trifluoromethyl)-pyrrole-3-carboxamide]: the IC50 in experiment [1] and in experiment [2] was 400 nM each time.
Take `CC(C)c1c(C(=O)Nc2ccccc2)c(-c2ccccc2)c(-c2ccc(F)cc2)n1CC[C@H]1C[C@H](O)CC(=O)O1` (relative stereo) [Compound 1, trans-5-(4-fluorophenyl)-2-(1-methylethyl)-N,4-diphenyl-1-[2-(tetrahydro-4-hydroxy-6-oxo-2H-pyran-2-yl)ethyl]-1H-pyrrole-3-carboxamide]: the IC50 in experiment [1] is 35 nM; in experiment [2], 50 nM.
